The values that follow come from BindingDB's records for patent US10117944 (Madrigal Pharmaceuticals, 2018).

This assay deals with Receptor tyrosine-protein kinase erbB-2 (Homo sapiens, UniProt P04626). As to the kind of experiment: HER2 Degradation Assay with BT-474 Cell Line. The source says:
HER2 has emerged as a key target for anticancer drugs due to its intrinsic involvement in the phosphatidylinositol-3-kinase-Akt/protein kinase B (PI3 K-Akt) and the mitogen-activated protein kinase (MAPK) pathways, both of which suppress apoptosis and promote tumor cell survival, gene transcription, angiogenesis, cellular proliferation, migration, mitosis, and differentiation. The degradation of HER2 is a measure of efficacy of anticancer therapeutics that target Hsp90. Accordingly, the SDC-TRAP molecules of the invention that comprise a binding moiety that binds Hsp90 were tested in the following HER2 degradation assay.BT-474 cells (human breast cancer cell line ATCC HTB-20) were obtained from ATCC and seeded into 12-well tissue culture plates at 0.2x106/1.8 mL/well. […] Each test compound was titrated in 4-fold dilutions from 5 μM to 78 nM with DMSO and 200 μL of the titration was added to each well of the cell plate. The DMSO final concentration was 0.2%. Cells were incubated overnight at 37° C. in 5% CO2.Media was decanted from the plate, cells were washed 1x in PBS. 400 μL trypsin (EDTA) per well was added, and the cells were incubated for 2 to 3 minutes. […] The cytometer readout was normalized and the potency of each compound was evaluated with IC50 calculated with XLfit software.

Sequence of Receptor tyrosine-protein kinase erbB-2 (P04626 whole entry): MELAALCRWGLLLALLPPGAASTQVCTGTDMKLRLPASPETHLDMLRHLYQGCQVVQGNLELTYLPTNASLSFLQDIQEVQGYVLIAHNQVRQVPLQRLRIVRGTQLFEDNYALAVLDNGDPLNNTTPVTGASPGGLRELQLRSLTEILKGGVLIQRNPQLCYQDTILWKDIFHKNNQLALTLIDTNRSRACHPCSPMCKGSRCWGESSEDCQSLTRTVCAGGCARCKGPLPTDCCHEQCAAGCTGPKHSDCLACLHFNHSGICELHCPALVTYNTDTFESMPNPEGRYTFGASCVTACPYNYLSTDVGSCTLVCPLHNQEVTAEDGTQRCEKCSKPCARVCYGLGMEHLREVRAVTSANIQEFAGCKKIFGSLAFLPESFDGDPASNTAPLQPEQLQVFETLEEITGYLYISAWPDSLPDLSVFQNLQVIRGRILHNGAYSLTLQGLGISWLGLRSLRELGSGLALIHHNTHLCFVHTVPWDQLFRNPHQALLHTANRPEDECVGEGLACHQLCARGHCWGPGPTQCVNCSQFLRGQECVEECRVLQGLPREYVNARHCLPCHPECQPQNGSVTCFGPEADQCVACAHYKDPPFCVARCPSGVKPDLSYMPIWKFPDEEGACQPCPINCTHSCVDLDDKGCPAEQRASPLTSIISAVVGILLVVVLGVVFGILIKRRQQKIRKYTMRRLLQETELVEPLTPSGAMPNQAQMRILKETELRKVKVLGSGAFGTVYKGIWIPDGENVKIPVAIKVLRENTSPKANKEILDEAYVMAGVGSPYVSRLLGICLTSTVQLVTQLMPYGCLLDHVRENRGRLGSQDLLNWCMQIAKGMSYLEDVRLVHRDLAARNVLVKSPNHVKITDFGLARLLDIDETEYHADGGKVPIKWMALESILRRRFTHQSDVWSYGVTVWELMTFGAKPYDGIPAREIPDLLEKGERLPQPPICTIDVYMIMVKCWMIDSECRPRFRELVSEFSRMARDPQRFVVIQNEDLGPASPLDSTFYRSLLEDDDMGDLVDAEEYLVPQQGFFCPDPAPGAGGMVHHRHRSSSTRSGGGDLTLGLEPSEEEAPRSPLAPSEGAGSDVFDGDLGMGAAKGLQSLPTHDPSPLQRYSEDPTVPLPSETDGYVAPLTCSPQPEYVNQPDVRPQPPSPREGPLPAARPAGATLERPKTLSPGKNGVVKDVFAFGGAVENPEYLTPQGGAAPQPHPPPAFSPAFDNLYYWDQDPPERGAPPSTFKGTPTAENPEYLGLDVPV

As to `CC(C)C[C@H](NC(=O)[C@H](Cc1ccccc1)NC(=O)c1cnccn1)B1O[C@H]2C[C@H]3C[C@H](C3(C)C)[C@@]2(CC(=O)N2CCC(CCn3ccc4cc(N(C(=N)c5cc(C(C)C)c(O)cc5O)C(N)=O)ccc43)CC2)O1` [US10117944, Compound SDC-TRAP-0245], the half-inhibitory concentration (IC50) (as a rule, the concentration that inhibits the measured activity by half) is 117 nM.
